{
  "source": "patent US20250387390A1",
  "about": "“METHODS FOR TREATING FIBROSIS USING PKM2 ACTIVATORS” (Proda Biotech L.L.C., priority 2020, published 2025)",
  "key": {"LX2 cells [1]": {"tested_on": "LX2 cells", "assay": "LOX and LOXL2 expression in LX2 cells under hypoxia (immunoblot, qPCR)", "assay_type": "cell-based", "details": "10 μM, hypoxia 24 hours, vs DMSO", "description": "(§1) Section (B) Relative band intensities were calculated for both LOX and LOXL2 using ImageJ."}, "NLF cells": {"tested_on": "NLF cells", "assay": "LOX and LOXL2 expression in NLF cells under hypoxia (immunoblot, qPCR)", "assay_type": "cell-based", "details": "10 μM, hypoxia 24 hours, vs DMSO", "description": "as §1"}, "LX2 cells [2]": {"tested_on": "LX2 cells", "assay": "qRT-PCR of Col1A1, PHGDH, PSAT1, SHMT1, SHMT2 mRNA in LX2 cells after TGFβ", "assay_type": "cell-based", "details": "following TGFβ treatment, vs DMSO, qRT-PCR fold change", "description": "Cellular levels of mRNA of collagen (Col1A1), PHGDH, PSAT1, SHMT1, and SHMT2 in LX2 cells with DASA-10 (black bar) or DMSO (open bar) treatment following TGFβ treatment were analyzed by qRT-PCR. The cellular mRNA levels are presented as fold change by comparing controls. Error bars represent mean±S.E.M."}, "bleomycin lung fibrosis": {"tested_on": "bleomycin lung fibrosis", "assay": "Bleomycin lung fibrosis induction in mice with subsequent treatment", "assay_type": "in vivo", "description": "(§2) Sections (A) & (E) of FIG. 1 are schematic illustrations of the schedule of TAA/alcohol liver fibrosis (A) and bleomycin lung fibrosis (E) induction and subsequent TEPP-46 treatments. […] Sections (C) & (D) of FIG. 1 show quantitation of collagen levels in Sirius red (B) and Masson's trichrome (F) staining and a-SMA IF (B) and IHC (F) staining of fibrotic liver (B) and lung (F) using ImageJ software. Quantification was calculated from measurements of 10 mice. Four randomly selected tissue sections per animal and three randomly selected view fields in each section were quantified. The quantity of collagen levels in Sirius red or Masson's trichrome stain and α-SMA IF or IHC stain is presented as % of total area. […] Sections (G) & (H) show Quantitative analyses of Serine (G) and Glycine (H) levels in tissue extracts of liver and lung from mice treated with indicated agents by HPLC-ms. Serine and glycine levels are presented as relative abundance by defining the vehicle treated group as 100%. Error bars in Sections C, D, G, H represent mean±S.E.M"}, "[3]": {"tested_on": "myocardial infarction (MI)", "assay": "Myocardial infarction by left ventricle ligation, cardiac fibrosis", "assay_type": "in vivo", "details": "C57BL/6J mice, LV ligation 70 minutes, i.p. injection, vs vehicle", "description": "C57BL/6J mice (n=6/group) were induced myocardial infarction (MI) by left ventricle ligation (LV). Sham are the mice underwent the same surgical procedure without LV. After 70 minutes, the LV was relieved. All mice were immediately treated with TEPP-46 or vehicle by i.p. injection. No treatment for the Sham mice. […] Scale bars, […]. […] The quantification is a mean value of randomly selected 4 fields from each section. Four sections were randomly selected from each mouse. The quantification is presented as blue staining Collagen Area (%). Error bars represent mean±S.E.M. * P<0.05, ** P<0.01, *** P<0.001, by unpaired two-tailed Student's t-test."}, "[4]": {"tested_on": "TAA/alcohol liver fibrosis", "assay": "TAA/alcohol liver fibrosis induction in mice with subsequent treatment", "assay_type": "in vivo", "description": "as §2"}, "cerulein pancreatitis": {"tested_on": "cerulein pancreatitis", "assay": "Cerulein pancreatitis induction in mice with subsequent treatment", "assay_type": "in vivo", "details": "cerulein-induced, vs vehicle", "description": "Section (A) is schematic illustration of the schedule of cerulein (red arrows) pancreatitis induction and subsequent TEPP-46 treatments (green arrows). […] Quantification was calculated from measurements of 6 mice. Four randomly selected tissue sections per animal and three randomly selected view fields in each section were quantified. The quantity of collagen levels in Sirius red stain is presented as % of total area."}},
  "data": [
    {"smiles": "O=S(=O)(c1ccc2c(c1)OCCO2)N1CCN(S(=O)(=O)c2c(F)cccc2F)CC1", "note": "[DASA-10]", "values": [
      {"measurement": "LOX and LOXL2 expression", "setting": "LX2 cells [1]", "result": "reduces LOX and LOXL2 expression"},
      {"measurement": "LOX and LOXL2 expression", "setting": "NLF cells", "result": "reduces LOX and LOXL2 expression"},
      {"measurement": "metabolic enzymes involved in serine/glycine metabolism (mRNA of Col1A1, PHGDH, PSAT1, SHMT1, SHMT2)", "setting": "LX2 cells [2]", "result": "decreases metabolic enzymes that are involved in serine/glycine metabolism"}
    ]},
    {"smiles": "Cn1c2cc([S+](C)[O-])sc2c2cnn(Cc3cccc(N)c3)c(=O)c21", "note": "(centres unmarked) [TEPP-46]", "values": [
      {"measurement": "lung fibrosis (collagen by Masson's trichrome, α-SMA IHC staining, % of total area)", "setting": "bleomycin lung fibrosis; bleomycin lung fibrosis, mice, vs vehicle", "result": "reverses liver and lung fibrosis"},
      {"measurement": "serine/glycine metabolism (serine and glycine levels in tissue extracts by HPLC-ms)", "setting": "bleomycin lung fibrosis; fibrotic lung, relative abundance, vehicle group = 100%", "result": "decreases serine/glycine metabolism"},
      {"measurement": "LOX expression in vivo (IHC LOX positive area, LOX activity)", "setting": "bleomycin lung fibrosis; fibrotic lungs, bleomycin model", "result": "reduces LOX expression in vivo"},
      {"measurement": "cardiac fibrosis after infarction (trichrome Collagen Area %)", "setting": "[3]", "result": "decreases cardiac fibrosis after infarction"},
      {"measurement": "liver fibrosis (collagen by Sirius red, α-SMA IF staining, % of total area)", "setting": "[4]; TAA/alcohol liver fibrosis, mice, vs vehicle", "result": "reverses liver and lung fibrosis"},
      {"measurement": "LOX expression in vivo (IHC LOX positive area, LOX activity)", "setting": "[4]; fibrotic liver, TAA/alcohol model", "result": "reduces LOX expression in vivo"},
      {"measurement": "serine/glycine metabolism (serine and glycine levels in tissue extracts by HPLC-ms)", "setting": "[4]; fibrotic liver, relative abundance, vehicle group = 100%", "result": "decreases serine/glycine metabolism"},
      {"measurement": "pancreatitis (collagen in Sirius red staining, H&E of pancreas)", "setting": "cerulein pancreatitis", "result": "reverse pancreatitis"}
    ]}
  ]
}
